The source of these data is patent US4868210A, “Antihyperlipidemic and antiatherosclerotic compounds and compositions” (priority 1988, dated 1989).

Usually IC50 stands for the point on the concentration scale where inhibition reaches its midpoint. Read a low IC50 as higher potency.

The target of the test is T1, acyl-CoA:cholesterol acyltransferase (ACAT) (Oryctolagus cuniculus, UniProt G1SFD9).
T1 construct: tissue preparation containing rabbit intestinal microsomes; from tissue; host or cells: rabbit intestinal microsomes
T1 sequence (G1SFD9 1-524): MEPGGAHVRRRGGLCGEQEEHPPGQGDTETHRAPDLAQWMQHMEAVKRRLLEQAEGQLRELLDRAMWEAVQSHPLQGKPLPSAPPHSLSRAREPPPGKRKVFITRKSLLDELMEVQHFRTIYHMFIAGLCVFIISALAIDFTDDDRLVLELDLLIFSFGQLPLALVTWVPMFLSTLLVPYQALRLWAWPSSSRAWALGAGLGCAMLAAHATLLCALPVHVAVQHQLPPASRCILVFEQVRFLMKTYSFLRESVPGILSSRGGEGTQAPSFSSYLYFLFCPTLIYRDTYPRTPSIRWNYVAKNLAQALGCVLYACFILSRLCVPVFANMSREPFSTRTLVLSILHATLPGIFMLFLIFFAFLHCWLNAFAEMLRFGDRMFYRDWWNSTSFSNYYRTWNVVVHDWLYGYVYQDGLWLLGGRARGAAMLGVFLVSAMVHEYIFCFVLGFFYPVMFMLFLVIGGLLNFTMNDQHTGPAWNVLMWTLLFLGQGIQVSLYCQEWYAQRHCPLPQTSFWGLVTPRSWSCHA
Nature of the test: In vitro ACAT inhibition (radiolabeled cholesterol oleate formation from radiolabeled oleic acid in rabbit intestinal microsomes). In kind it is biochemical. Conditions: concentration required to inhibit 50% the acylation of cholesterol by oleic acid. The method, then:
The ability of representative compounds of the present invention to inhibit ACAT was measured using an in vitro test more fully described in Field, F. J. and Salone, R. G., Biochemica et Biophysica 712: 557-570 (1982). The test assesses the ability of a test compound to inhibit the acylation of cholesterol by oleic acid by measuring the amount of radiolabeled cholesterol oleate formed from radiolabeled oleic acid in a tissue preparation containing rabbit intestinal microsomes.
Regarding `CC(C)c1cccc(C(C)C)c1NC(=O)NCC1c2ccccc2-c2ccccc21` [Example 1, N-[2,6-bis(1-methylethyl)phenyl]-N'-(9H-fluoren-9-ylmethyl)urea], the IC50 was 27 nM.
The same measure for `CC(C)c1cccc(C(C)C)c1NC(=O)NC1CCOc2ccccc2C1` (stereo not shown) [Example 8, N-[2,6-bis(1-methylethyl)phenyl]-N'-(2,3,4,5-tetrahydrobenzoxepin-4-yl)urea]: 52 nM; for `CC(C)c1cccc(C(C)C)c1NC(=O)NC1CCc2ccccc2C1` (stereo not shown) [Example 9, N-[2,6-bis(1-methylethyl)phenyl]-N'-(1,2,3,4-tetrahydro-2-naphthalenyl)urea]: 41 nM.
The same measure for `CC(C)c1cccc(C(C)C)c1NC(=O)NC1COc2ccccc2C1` (stereo not shown) [Example 10, N-[2,6-bis(1-methylethyl)phenyl]-N'-(3,4-dihydro-2H-1-benzopyran-3-yl)urea]: 100 nM; for `COc1ccc2c(c1)CC(CNC(=O)Nc1c(C(C)C)cccc1C(C)C)CC2` (stereo not shown) [Example 11, N-[2,6-bis(1-methylethyl)phenyl]-N'-[(1,2,3,4-tetrahydro-7-methoxy-2-naphthalenyl)methyl]urea]: 84 nM; for `Cc1cccc(C)c1NC(=O)NC1CC(C)(C)c2ccccc2C1(C)C` (stereo not shown) [Example 12, N-(2,6-dimethylphenyl)-N'-(1,2,3,4-tetrahydro-1,1,4,4-tetramethyl-2-naphthalenyl)urea]: 270 nM.
The value for `CC(C)c1cccc(C(C)C)c1NC(=O)NC1CC(C)(C)c2ccccc2C1(C)C` (stereo not shown) [Example 13, N-[2,6-bis(1-methylethyl)phenyl]-N'-(1,2,3,4-tetrahydro-1,1,4,4-tetramethyl-2-naphthalenyl)urea] was 89 nM.
